Reference: patent publication US11236047B2 (ASTEX THERAPEUTICS LIMITED, priority 2017, dated 2022)
Like-named read-outs stand apart in the source and are kept apart here.

Tests used:
SN40R2 cells = experiment: Protocol B: SN40R2 CellTiter-Glo luminescent cell viability assay; settings: for IC50: read-out: SN40R2 IC50 (μM) (Protocol B)
SJSA-1 cells = experiment: Protocol B: SJSA-1 CellTiter-Glo luminescent cell viability assay
Method: Protocol B: SJSA-1 and SN40R2 Assays
The CellTiter-Glo® Luminescent Cell Viability Assay is a homogeneous method to determine the number of viable cells in culture based on quantitation of the ATP present, which signals the presence of metabolically active cells. […] 100 μl of CTG reagent (Promega #G7573) was added to all wells and luminescence was measured on the topcount. The EC50 values were determined from a sigmoidal 4 parameter curve fit using XLfit in conjunction with Activity Base (IDBS; Guildford, Surrey, UK).

[1] = read-out: SN40R2 % inhibition at 10
[2] = read-out: SJSA1 IC50 (μM) (Protocol B), SJSA-1, Protocol B

SMILES | inhibition at 10 µM (SN40R2 cells; [1]) [%] | also measured
CC[C@](O)(c1cc(F)c2c(c1)C(=O)N(Cc1ncc(Cl)cn1)[C@@]2(OCCO)c1ccc(Cl)cc1)C1(F)CCOCC1 [Example 502, (3R)-3-(4-chlorophenyl)-2-[(5-chloropyrimidin-2-yl)methyl]-4-fluoro-6-[(1S)-1-(4-fluorooxan-4-yl)-1-hydroxypropyl]-3-(2-hydroxyethoxy)-2,3-dihydro-1H-isoindol-1-one] | 11 | 
CN1CCC(C(C)(O)c2cc(F)c3c(c2)C(=O)N(Cc2ccc(Cl)cn2)[C@@]3(OCC2(C(N)=O)CC2)c2ccc(Cl)cc2)CC1 (single isomer, unassigned) [Example 306] |  | IC50 (SN40R2 cells): 13 µM
CCC(O)(CN1CC[C@@H](O)C1)c1cc(F)c2c(c1)C(=O)N(Cc1ncc(Cl)cn1)[C@@]2(O[C@H]1CCOC1)c1ccc(Cl)cc1 (single isomer, unassigned) [Example 526] | 9 | 
CCC(O)(c1cc(F)c2c(c1)C(=O)N(Cc1ncc(C#N)cn1)[C@@]2(O[C@H]1CCOC1)c1ccc(Cl)cc1)c1ccn(C)n1 (single isomer, unassigned) [Example 489] |  | inhibition at 10 µM (SN40R2 cells; read-out: SN40R2 % inhibition at 10, Protocol B, SN40R2, at 10 μM): -9%
CO[C@]1(c2ccc(Cl)cc2)c2c(F)cc(C(C)(O)C3CCN(c4ncccn4)CC3)cc2C(=O)N1Cc1ccc(Cl)cn1 (single isomer, unassigned) [Example 286] |  | IC50 (SN40R2 cells): 12 µM
CCC(O)(c1cc(F)c2c(c1)C(=O)N(Cc1ccc(C#N)cn1)[C@@]2(OCCO)c1ccc(Cl)cc1)c1cn(C)cn1 (stereo partly drawn) [Example 364, 6-{[(1R)-1-(4-chlorophenyl)-7-fluoro-5-[1-hydroxy-1-(1-methyl-1H-imidazol-4-yl)propyl]-1-(2-hydroxyethoxy)-3-oxo-2,3-dihydro-1H-isoindol-2-yl]methyl}pyridine-3-carbonitrile] | 9 | 
CC[C@@](O)(c1cc(F)c2c(c1)C(=O)N(Cc1ncc(Cl)cn1)[C@@]2(OC)c1ccc(Cl)cc1)C1CCN(C)CC1 [Example 553, (3R)-3-(4-chlorophenyl)-2-[(5-chloropyrimidin-2-yl)methyl]-4-fluoro-6-[(1S)-1-hydroxy-1-(1-methylpiperidin-4-yl)propyl]-3-methoxy-2,3-dihydro-1H-isoindol-1-one] | 24 | 
CC[C@@](O)(c1cc(F)c2c(c1)C(=O)N(Cc1ccc(C)nc1C(=O)O)[C@@]2(OC)c1ccc(Cl)cc1)C1(F)CCOCC1 [Example 515, 3-{[(1R)-1-(4-chlorophenyl)-7-fluoro-5-[(1R)-1-(4-fluorooxan-4-yl)-1-hydroxypropyl]-1-methoxy-3-oxo-2,3-dihydro-1H-isoindol-2-yl]methyl}-6-methylpyridine-2-carboxylic acid] | 8 | 
CCC(O)(c1cc(F)c2c(c1)C(=O)N(Cc1ccc(C#N)cn1)[C@@]2(O[C@H]1CCOC1)c1ccc(Cl)cc1)c1ccn(C)c(=O)c1 (stereo partly drawn) [Example 374, 6-{[(1R)-1-(4-chlorophenyl)-7-fluoro-5-[1-hydroxy-1-(1-methyl-2-oxo-1,2-dihydropyridin-4-yl)propyl]-3-oxo-1-[(3S)-oxolan-3-yloxy]-2,3-dihydro-1H-isoindol-2-yl]methyl}pyridine-3-carbonitrile] | 2 | 
CO[C@]1(c2ccc(Cl)cc2)c2c(F)cc(C(C)(O)C3CCN(CC(=O)O)CC3)cc2C(=O)N1Cc1ccc(Cl)cn1 (single isomer, unassigned) [Example 459] | 7 | 
CCC(O)(c1cc(F)c2c(c1)C(=O)N(Cc1ncc(Cl)cn1)[C@@]2(OC)c1ccc(Cl)cc1)C1CCNCC1 (stereo partly drawn) [Example 450, (3R)-3-(4-chlorophenyl)-2-[(5-chloropyrimidin-2-yl)methyl]-4-fluoro-6-[1-hydroxy-1-(piperidin-4-yl)propyl]-3-methoxy-2,3-dihydro-1H-isoindol-1-one] | 15 | 
CCC(O)(c1cc(F)c2c(c1)C(=O)N(Cc1ccc(C#N)cn1)[C@@]2(O[C@H]1CCOC1)c1ccc(Cl)cc1)C1(F)CCOCC1 (stereo partly drawn) [Example 445, 6-{[(1R)-1-(4-chlorophenyl)-7-fluoro-5-[1-(4-fluorooxan-4-yl)-1-hydroxypropyl]-3-oxo-1-[(3S)-oxolan-3-yloxy]-2,3-dihydro-1H-isoindol-2-yl]methyl}pyridine-3-carbonitrile] | 16 | 
Cn1cnc(C(O)(c2cc(F)c3c(c2)C(=O)N(Cc2ccc(C#N)cn2)[C@@]3(O[C@H]2CCOC2)c2ccc(Cl)cc2)C2CC2)c1 (stereo partly drawn) [Example 434, 6-{[(1R)-1-(4-chlorophenyl)-5-[cyclopropyl(hydroxy)(1-methyl-1H-imidazol-4-yl)methyl]-7-fluoro-3-oxo-1-[(3S)-oxolan-3-yloxy]-2,3-dihydro-1H-isoindol-2-yl]methyl}pyridine-3-carbonitrile] | 7 | 
CC[C@@](O)(c1cc(F)c2c(c1)C(=O)N(Cc1ncc(Cl)cn1)[C@@]2(OCCO)c1ccc(Cl)cc1)C1CCN(C)CC1 [Example 559, (3R)-3-(4-chlorophenyl)-2-[(5-chloropyrimidin-2-yl)methyl]-4-fluoro-6-[(1S)-1-hydroxy-1-(1-methylpiperidin-4-yl)propyl]-3-(2-hydroxyethoxy)-2,3-dihydro-1H-isoindol-1-one] | 1 | 
CC(O)(c1cc(F)c2c(c1)C(=O)N(Cc1ccc(C#N)cn1)[C@@]2(O[C@H]1CCOC1)c1ccc(Cl)cc1)C1(F)CCOCC1 (stereo partly drawn) [Example 388, 6-{[(1R)-1-(4-chlorophenyl)-7-fluoro-5-[1-(4-fluorooxan-4-yl)-1-hydroxyethyl]-3-oxo-1-[(3S)-oxolan-3-yloxy]-2,3-dihydro-1H-isoindol-2-yl]methyl}pyridine-3-carbonitrile] | 4 | 
CCC(O)(c1cc(F)c2c(c1)C(=O)N(Cc1ncc(C#N)cn1)[C@@]2(OC1CCC(O)C1)c1ccc(Cl)cc1)c1cn(C)cn1 (stereo partly drawn) [Example 461, 2-{[(1R)-1-(4-chlorophenyl)-7-fluoro-5-[1-hydroxy-1-(1-methyl-1H-imidazol-4-yl)propyl]-1-[(trans-3-hydroxycyclopentyl)oxy]-3-oxo-2,3-dihydro-1H-isoindol-2-yl]methyl}pyrimidine-5-carbonitrile] | 6 | 
CCC(O)(c1cc(F)c2c(c1)C(=O)N(Cc1ccc(C#N)cn1)[C@@]2(O[C@@H]1CCOC1)c1ccc(Cl)cc1)c1cn(C)cn1 (stereo partly drawn) [Example 426, 6-{[(1R)-1-(4-chlorophenyl)-7-fluoro-5-[1-hydroxy-1-(1-methyl-1H-imidazol-4-yl)propyl]-3-oxo-1-[(3R)-oxolan-3-yloxy]-2,3-dihydro-1H-isoindol-2-yl]methyl}pyridine-3-carbonitrile] | 4 | 
CO[C@]1(c2ccc(Cl)cc2)c2c(F)cc(C(C)(O)C3CCN(C)CC3)cc2C(=O)N1Cc1ccc(Cl)cn1 (stereo partly drawn) [Example 304, (3R)-3-(4-chlorophenyl)-2-[(5-chloropyridin-2-yl)methyl]-4-fluoro-6-[1-hydroxy-1-(1-methylpiperidin-4-yl)ethyl]-3-methoxy-2,3-dihydro-1H-isoindol-1-one] |  | IC50 (SN40R2 cells): 9 µM
CCC(O)(CN1CCNCC1)c1cc(F)c2c(c1)C(=O)N(Cc1ncc(Cl)cn1)[C@@]2(O[C@H]1CCOC1)c1ccc(Cl)cc1 (single isomer, unassigned) [Example 524] | 35 | 
CCC(O)(c1cc(F)c2c(c1)C(=O)N(Cc1ccc(C#N)cn1)[C@@]2(O[C@H]1C[C@@H](O)C1)c1ccc(Cl)cc1)c1cnn(C)c1 (stereo partly drawn) [Example 339, 6-{[(1R)-1-(4-chlorophenyl)-7-fluoro-5-[1-hydroxy-1-(1-methyl-1H-pyrazol-4-yl)propyl]-3-oxo-1-[cis-3-hydroxycyclobutoxy]-2,3-dihydro-1H-isoindol-2-yl]methyl}pyridine-3-carbonitrile] | 3 | 
CCC(O)(CN(C)C)c1cc(F)c2c(c1)C(=O)N(Cc1ncc(Cl)cn1)[C@@]2(O[C@H]1CCOC1)c1ccc(Cl)cc1 (stereo partly drawn) [Example 528, (3R)-3-(4-chlorophenyl)-2-[(5-chloropyrimidin-2-yl)methyl]-6-[1-(dimethylamino)-2-hydroxybutan-2-yl]-4-fluoro-3-[(3S)-oxolan-3-yloxy]-2,3-dihydro-1H-isoindol-1-one] | 10 | 
Cc1nc(C(C)(O)c2cc(F)c3c(c2)C(=O)N(Cc2ccc(Cl)cn2)[C@@]3(OCC2(O)CC2)c2ccc(Cl)cc2)cn1C (single isomer, unassigned) [Example 325] |  | IC50 (SJSA-1 cells; [2]): 0.24 µM
Cn1cc(C(C)(O)c2cc(F)c3c(c2)C(=O)N(Cc2ccc(Cl)cn2)[C@@]3(OCC2(C#N)CC2)c2ccc(Cl)cc2)cn1 (single isomer, unassigned) [Example 201] |  | IC50 (SJSA-1 cells; [2]): 0.76 µM
CN1CCN(CC(C)(O)c2cc(F)c3c(c2)C(=O)N(Cc2ccc(C#N)cn2)[C@@]3(OCC2(C#N)CC2)c2ccc(Cl)cc2)CC1 (single isomer, unassigned) [Example 278] |  | IC50 (SJSA-1 cells; [2]): 2.6 µM
[2H]C([2H])(O)C1(C([2H])([2H])O[C@]2(c3ccc(Cl)cc3)c3c(F)cc(C(O)(CC)c4cn(C)cn4)cc3C(=O)N2Cc2ccc(C#N)cn2)CC1 (stereo partly drawn) [Example 440, 6-{[(1R)-1-(4-chlorophenyl)-7-fluoro-1-({1-[hydroxy(^2H2)methyl]cyclopropyl}(^2H2)methoxy)-5-[1-hydroxy-1-(1-methyl-1H-imidazol-4-yl)propyl]-3-oxo-2,3-dihydro-1H-isoindol-2-yl]methyl}pyridine-3-carbonitrile] |  | IC50 (SJSA-1 cells; read-out: SJSA1 IC50, Protocol B, SJSA-1): 1.9 µM
CCC(O)(c1cc(F)c2c(c1)C(=O)N(Cc1ccc(Cl)nc1)[C@@]2(OCCO)c1ccc(Cl)cc1)c1cn(C)cn1 (stereo partly drawn) [Example 367, (3R)-3-(4-chlorophenyl)-2-[(6-chloropyridin-3-yl)methyl]-4-fluoro-6-[1-hydroxy-1-(1-methyl-1H-imidazol-4-yl)propyl]-3-(2-hydroxyethoxy)-2,3-dihydro-1H-isoindol-1-one] |  | IC50 (SJSA-1 cells; Homo sapiens, SJSA-1, read-out: SJSA1 IC50 (μM), Protocol B, SJSA-1): 0.11 µM
